Here are results for eleven molecules from ChEMBL document CHEMBL1154172, “Synthesis and anti-inflammatory evaluation of novel angularly or linearly fused coumarins” (Eur J Med Chem, 2009).

Active and inactive are the calls of the source. The rule behind the calls is not given here.

For series [1], the system named is Rattus norvegicus. Description: Toxicity in Fisher 344 rat assessed as body weight change per 100 g of animal at 0.01 mmol/kg, ip administered daily once for 4 days measured after 24 hrs final post dose. The conditions noted are these: in vivo. It is filed as organism-based.
The subject of series [2] is Rattus norvegicus. Description: Antiinflammatory activity in Fisher 344 rat assessed as inhibition of carrageenan-induced paw edema at 0.01 mmol/kg, ip after 3.5 hrs. To be noted: Fisher 344, ip. It is filed as functional. In general terms: The carrageenan paw model is a standard test of acute inflammation.
The nature of series [3]: Toxicity in Fisher 344 rat assessed as mortality at 0.01 mmol/kg, ip administered daily once for 4 days measured after 24 hrs final post dose. The class given is organism-based. To be noted: in vivo, read-out: Activity.
The test system of series [4] is Rattus norvegicus. As to the kind of experiment: Toxicity in Fisher 344 rat assessed as melena defecation at 0.01 mmol/kg, ip administered daily once for 4 days measured after 24 hrs final post dose. It is filed as organism-based. The conditions noted are these: in vivo.
Series [5] deals with Rattus norvegicus. Description: Toxicity in Fisher 344 rat assessed as gastrointestinal ulcer at 0.01 mmol/kg, ip administered daily once for 4 days measured after 24 hrs final post dose. It is filed as organism-based. The conditions noted are these: in vivo.
Series [6] relates to Radical scavenging activity. As to the kind of experiment: Antioxidant activity assessed as DPPH free radical scavenging activity at 0.1 mM after 60 mins. The class given is functional. (In general: The DPPH test is a chemical assay of radical scavenging.)
The test system of series [7] is Radical scavenging activity. As to the kind of experiment: Antioxidant activity assessed as DPPH free radical scavenging activity at 0.1 mM after 20 mins. The class given is functional.
Series [8] has as its system Radical scavenging activity. Description: Antioxidant activity assessed as DPPH free radical scavenging activity at 0.05 mM after 20 mins. It is filed as functional.
Series [9] relates to Radical scavenging activity. Description: Antioxidant activity assessed as DPPH free radical scavenging activity at 0.05 mM after 60 mins. The class given is functional.
Series [10] can be described thus: Antioxidant activity assessed as superoxide radical scavenging activity at 0.1 mM after 2 mins by nitroblue tetrazolium method. It is filed as functional.
A short description of series [11]: Inhibition of soybean lipoxygenase assessed as conversion of sodium linoleate to 13-hydroperoxylinoleic acid. Details: species or system Glycine max.
A short description of series [12]: Antioxidant activity against Fe3+/ascorbic acid system generated hydroxyl radicals assessed as inhibition of formaldehyde production at 0.1 mM. The arrangement: scale not given: the % may be the effect or the level left. It is filed as functional.
The subject of the next series is Glycine max. Description: Inhibition of soybean lipoxygenase assessed as conversion of sodium linoleate to 13-hydroperoxylinoleic acid at 0.1 mM.

Take `COc1ccc2c(c1)c(CC(=O)O)c(C)n2C(=O)c1ccc(Cl)cc1` [INDOMETHACIN]: the Activity is listed as -9 g in the series on Rattus norvegicus [1], “Non-toxic” in the series on Rattus norvegicus [4] and 78% in the series on Rattus norvegicus [5]. For the same molecule, in the series on Rattus norvegicus [2], the inhibition in vivo (usually how much of the control response was suppressed) at 10 µmol/kg came out at 47%. In series [3], the mortality at 24 h was 50%.
For the molecule `CC(Cc1ccc(O)c(O)c1)C(C)Cc1ccc(O)c(O)c1` (centres undefined), the Activity stood at 83% in series [6], 65% in series [7], 63% in series [8] and 81% in series [9].
`O=C(O)/C=C/c1ccc(O)c(O)c1` [CAFFEIC ACID]: the Activity in [10] stood at 46%. For the same molecule, the IC50 (commonly the concentration that inhibits the measured activity by half) in series [11] is 600 µM.
Take `O=c1ccc2ccc3c(c2o1)CCCC3`: the inhibition in vivo at 10 µmol/kg in the series on Rattus norvegicus [2] turned out to be 54%. Further, the result in series [6], in [12] and in series [7] was inactive. The inhibition – broadly, the percentage by which the read-out fell short of the control – with Glycine max is 4%. Also, the results for the Activity in series [10], in [8] and in [9] were 16%, 25% and 15%, respectively.
Turning to `COC(=O)c1cc(=O)oc2cc3c(cc12)CCCC3`, the inhibition in vivo at 10 µmol/kg in the series on Rattus norvegicus [2] is 43.4%. Moreover, the Activity in [6] was determined as 25%; in series [12], 74%; in series [7] it was 12%; in [10] it was 100%; in series [8] it was 12%; in series [9], 21%. For the same molecule, the inhibition with Glycine max stood at 78%.
On to `COC(=O)c1cc(=O)oc2c3c(ccc12)OC(C)(C)C3`, for which the Activity is 2.5 g in the series with Rattus norvegicus [1]; 72% in series [12]; 11% in [8]; 12% in series [9]; “Toxic” in the series on Rattus norvegicus [4]; 0% in the series with Rattus norvegicus [5]. Besides, in the series on Rattus norvegicus [2], the inhibition in vivo at 10 µmol/kg came out at 65%. Moreover, in series [3], the mortality at 24 h amounted to 0%. The result in [6], in [7] and in series [10] was inactive. Further, in the series with Glycine max, the inhibition turned out to be 4%.
Consider `COC(=O)c1cc(=O)oc2ccc3c(c12)CCCC3`, for which the inhibition in vivo at 10 µmol/kg in the series with Rattus norvegicus [2] is 34%. Besides, the Activity in [6] is 20%; in series [12], 53%; in [7], 18%; in series [8], 14%; in [9], 17%. For the same molecule, the inhibition in the series on Glycine max came out at 31%. In addition, the outcome in series [10] was inactive.
Take `Cc1c(C)c2c(c(C)c1O)CCC(C)(C(=O)O)O2` (centres undefined): in series [12], the Activity worked out at 88%.
For `COC(=O)c1cc(=O)oc2cc3c(cc12)CCC3`, the Activity in [6] worked out at 27%; in [12], 64%; in series [7], 14%; in series [8], 19%; in series [9] it was 22%. In addition, the inhibition in the series on Glycine max came to 10%.
Take `COC(=O)c1cc(=O)oc2cc3c(cc12)OCO3`: the inhibition in vivo at 10 µmol/kg in the series with Rattus norvegicus [2] turned out to be 45.5%. Also, the Activity in [6] is 21%; in series [12], 78%; in series [7], 9%; in series [8] it was 12%; in [9] it was 18%. Moreover, in the series with Glycine max, the inhibition was determined as 0%.
On to `COC(=O)c1cc(=O)oc2c3c(ccc12)CCCC3`, for which the inhibition in vivo at 10 µmol/kg with Rattus norvegicus [2] was determined as 62%. In addition, the result in [6], in series [12], in series [7] and in series [10] was inactive. The values for the Activity in [8] and in [9] were 27% and 31%, respectively. Also, the half-inhibitory concentration (IC50) in series [11] came to 100 µM.
